Here are results for 15 compounds from US20260347373A1, “HETEROCYCLIC COMPOUNDS, COMPOSITIONS THEREOF, AND METHODS OF TREATMENT THEREWITH” (BeOne Medicines I GmbH, priority 2023, published 2026).

For experiment [1], the target named is WT KRAS (Homo sapiens, UniProt P01116). In words: KRAS WT Probe Displacement Assay (TR-FRET, GDP-loaded). It counts as binding. An excerpt:
(§1) The synthetic routes of probe 1 and 2, which have been disclosed in PCT/CN2022/070676, are hereby incorporated herein.

Experiment [2] has as its target KRAS G12D (Homo sapiens, UniProt P01116, G12D). In words: KRAS G12D Probe Displacement Assay (TR-FRET, GDP-loaded). It counts as binding.
Excerpt: as §1

Setting [3] is: KRAS WT, read-out: KRAS^WT Probe Displacement Assay IC50.
Setting [4] is: KRAS G12D, read-out: KRAS^G12D Probe Displacement Assay IC50.
Setting [5] is: KRAS^WT Probe Displacement Assay IC50, KRAS WT.
The mark [6] stands for this setting: KRAS^G12D Probe Displacement Assay IC50, KRAS G12D.

As a reminder, the IC50 is the concentration needed to halve the response being measured.

Like-named read-outs stand apart in the source and are kept apart here. A value given as a limit tells only on which side of the number the result lay.

KRAS G12D, sequence (P01116 1-188 isoform P01116-2 G12D): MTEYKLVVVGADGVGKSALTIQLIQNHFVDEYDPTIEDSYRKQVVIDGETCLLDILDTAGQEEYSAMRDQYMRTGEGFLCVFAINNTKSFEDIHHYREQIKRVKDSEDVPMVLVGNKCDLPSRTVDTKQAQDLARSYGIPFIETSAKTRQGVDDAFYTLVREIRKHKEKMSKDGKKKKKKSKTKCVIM
WT KRAS, sequence (P01116 1-188 isoform P01116-2): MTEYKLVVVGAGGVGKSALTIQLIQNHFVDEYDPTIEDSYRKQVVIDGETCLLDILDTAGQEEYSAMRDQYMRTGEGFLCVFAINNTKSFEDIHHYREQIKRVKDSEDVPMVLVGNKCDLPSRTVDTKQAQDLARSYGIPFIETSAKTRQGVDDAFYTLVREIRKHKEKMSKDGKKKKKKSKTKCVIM

Consider `Cc1cc(N)cc(-c2nc3c4c(nc(OCC5(CN6CCOCC6)CC5)nc4c2F)N2C[C@H]4CC[C@H](N4)[C@H]2CCO3)c1C(F)(F)F` [Example 67, 3-((6aR,7S,10R)-1-fluoro-13-((1-(morpholinomethyl)cyclopropyl)methoxy)-5,6,6a,7,8,9,10,11-octahydro-4-oxa-3,11a,12,14,15-pentaaza-7,10-methanocyclohepta[4,5]cycloocta [1,2,3-de]naphthalen-2-yl)-5-methyl-4-(trifluoromethyl)aniline], for which the IC50 in experiment [1] (setting [3]) was 3 to 1000 nM; in experiment [2] (setting [4]), under 0.3 nM.
As to `Cc1cc(N)cc(-c2nc3c4c(nc(OCC5(CN6CCC[C@H]6C)CC5)nc4c2F)N2C[C@H]4CC[C@H](N4)[C@H]2CCO3)c1C(F)(F)F` [Example 122, 3-((6aR,7S,10R)-1-fluoro-13-((1-(((R)-2-methylpyrrolidin-1-yl)methyl)cyclopropyl)methoxy)-5,6,6a,7,8,9, 10,11-octahydro-4-oxa-3,11a,12,14,15-pentaaza-7,10-methanocyclohepta [4,5]cycloocta [1,2,3-de]naphthalen-2-yl)-5-methyl-4-(trifluoromethyl)aniline], the IC50 in experiment [1] (setting [3]) was 3 to 1000 nM; in experiment [2] (setting [4]), under 0.3 nM.
Regarding `Cc1cc(N)cc(-c2nc3c4c(nc(OC[C@@]56C[C@@H](F)CN5C[C@@]5(CC5(F)F)C6)nc4c2F)N2C[C@H]4CC[C@H](N4)[C@H]2CCO3)c1C(F)(F)F` [Example 199, 3-((6aR,7S,10R)-1-fluoro-13-(((1S,6′R,7a′R)-2,2,6′-trifluorodihydro-1′H,3′H-spiro[cyclopropane-1,2′-pyrrolizin]-7a′(5′H)-yl)methoxy)-5,6,6a,7,8,9,10,11-octahydro-4-oxa-3,11a,12,14,15-pentaaza[7,10]methanocyclohepta[4,5]cycloocta[1,2,3-de]naphthalen-2-yl)-5-methyl-4-(trifluoromethyl)aniline], the results for the IC50 in experiment [1] (setting [3]) and in experiment [2] (setting [4]) were 0.3 to 3 nM and under 0.3 nM, respectively.
For `Cc1cc(N)cc(-c2nc3c4c(nc(OCC5(CN6CC(O)(C(F)(F)F)C6)CC5)nc4c2F)N2C[C@H]4CC[C@H](N4)[C@H]2CCO3)c1C(F)(F)F` [Example 80, 1-((1-((((6aR,7S,10R)-2-(5-amino-3-methyl-2-(trifluoromethyl)phenyl)-1-fluoro-5,6,6a,7,8,9,10,11-octahydro-4-oxa-3,11a,12,14,15-pentaaza-7,10-methanocyclohepta[4,5]cycloocta [1,2,3-de]naphthalen-13-yl)oxy)methyl)cyclopropyl)methyl)-3-(trifluoromethyl) azetidin-3-ol] the same measures were 3 to 1000 nM and under 0.3 nM.
On to `COC[C@@H]1[C@H]2C[C@H]2CN1CC1(COc2nc3c4c(nc(-c5cc(N)cc(C)c5C(F)(F)F)c(F)c4n2)OCC[C@@H]2[C@@H]4CC[C@H](CN32)N4)CC1` [Example 182, 3-((6aR,7S,10R)-1-fluoro-13-((1-(((1S,2S,5R)-2-(methoxymethyl)-3-azabicyclo[3.1.0]hexan-3-yl)methyl)cyclopropyl)methoxy)-5,6,6a,7,8,9,10,11-octahydro-4-oxa-3,11a,12,14,15-pentaaza-7,10-methanocyclohepta[4,5]cycloocta[1,2,3-de]naphthalen-2-yl)-5-methyl-4-(trifluoromethyl)aniline], for which the half-inhibitory concentration (IC50) was 3 to 1000 nM in experiment [1] (setting [3]) and under 0.3 nM in experiment [2] (setting [4]).
For `CO[C@@H]1CCN(CC2(COc3nc4c5c(nc(-c6cc(N)cc(C)c6C(F)(F)F)c(F)c5n3)OCC[C@@H]3[C@@H]5CC[C@H](CN43)N5)CC2)C[C@@H]1F` [Example 184, 3-((6aR,7S,10R)-1-fluoro-13-((1-(((3S,4R)-3-fluoro-4-methoxypiperidin-1-yl)methyl)cyclopropyl)methoxy)-5,6,6a,7,8,9,10,11-octahydro-4-oxa-3,11a,12,14,15-pentaaza-7,10-methanocyclohepta[4,5]cycloocta[1,2,3-de]naphthalen-2-yl)-5-methyl-4-(trifluoromethyl)aniline] the same measures were 3 to 1000 nM and under 0.3 nM.
For `Cc1cc(N)cc(-c2nc3c4c(nc(OCC5(CN6CCC(C)(O)C6)CC5)nc4c2F)N2C[C@H]4CC[C@H](N4)[C@H]2CCO3)c1C(F)(F)F` (stereo partly drawn) [Example 93, 1-((1-((((6aR,7S, 10R)-2-(5-amino-3-methyl-2-(trifluoromethyl)phenyl)-1-fluoro-5,6,6a,7,8,9,10,11-octahydro-4-oxa-3,11a,12,14,15-pentaaza-7,10-methanocyclohepta [4,5]cycloocta[1,2,3-de]naphthalen-13-yl)oxy)methyl)cyclopropyl)methyl)-3-methylpyrrolidin-3-ol] the same measures were 3 to 1000 nM and under 0.3 nM.
Take `CN(C)C1(C)CN(c2nc3c4c(nc(-c5cc(N)cc(Cl)c5C(F)(F)F)c(F)c4n2)OCC[C@@H]2[C@@H]4CC[C@H](CN32)N4)C1` [Example 31, 1-((6aR,7S,10R)-2-(5-amino-3-chloro-2-(trifluoromethyl)phenyl)-1-fluoro-5,6,6a,7,8,9,10,11-octahydro-4-oxa-3,11a,12,14,15-pentaaza-7,10-methanocyclohepta[4,5]cycloocta [1,2,3-de]naphthalen-13-yl)-N,N,3-trimethylazetidin-3-amine]: the IC50 in experiment [1] (setting [3]) fell in the range of 3 to 1000 nM; in experiment [2] (setting [4]) it was 0.3 to 3 nM.
For `Cc1cc(N)cc(-c2nc3c4c(nc(OCC5(CN6CCC(C)(C#N)C6)CC5)nc4c2F)N2C[C@H]4CC[C@H](N4)[C@H]2CCO3)c1C(F)(F)F` (stereo partly drawn) [Example 167, 1-((1-((((6aR,7S,10R)-2-(5-amino-3-methyl-2-(trifluoromethyl)phenyl)-1-fluoro-5,6,6a,7,8,9,10,11-octahydro-4-oxa-3,11a,12,14,15-pentaaza-7,10-methanocyclohepta[4,5]cycloocta[1,2,3-de]naphthalen-13-yl)oxy)methyl)cyclopropyl)methyl)-3-methylpyrrolidine-3-carbonitrile] the same measures were 0.3 to 3 nM and under 0.3 nM.
As to `Cc1cc(N)cc(-c2nc3c4c(nc(OCC5(CN6CC=CC6)CC5)nc4c2F)N2C[C@H]4CC[C@H](N4)[C@H]2CCO3)c1C(F)(F)F` [Example 111, 3-((6aR,7S,10R)-13-((1-((2,5-dihydro-1H-pyrrol-1-yl)methyl)cyclopropyl)methoxy)-1-fluoro-5,6,6a,7,8,9,10,11-octahydro-4-oxa-3,11a,12,14,15-pentaaza-7,10-methanocyclohepta [4,5]cycloocta [1,2,3-de]naphthalen-2-yl)-5-methyl-4-(trifluoromethyl) aniline], the results for the IC50 in experiment [1] (setting [5]) and in experiment [2] (setting [6]) were 3 to 1000 nM and under 0.3 nM, respectively.
Regarding `Cc1cc(N)cc(-c2nc3c4c(nc(OCC5(CN6CCC=C(F)C6)CC5)nc4c2F)N2C[C@H]4CC[C@H](N4)[C@H]2CCO3)c1C(F)(F)F` [Example 179, 3-((6aR,7S,10R)-1-fluoro-13-((1-((5-fluoro-3,6-dihydropyridin-1(2H)-yl)methyl)cyclopropyl)methoxy)-5,6,6a,7,8,9,10,11-octahydro-4-oxa-3,11a,12,14,15-pentaaza-7,10-methanocyclohepta[4,5]cycloocta[1,2,3-de]naphthalen-2-yl)-5-methyl-4-(trifluoromethyl)aniline], the IC50 in experiment [1] (setting [3]) is 3 to 1000 nM; in experiment [2] (setting [4]) it was under 0.3 nM.
As for `Cc1cc(N)cc(-c2nc3c4c(nc(OCC5(CN6CCC(C(F)(F)F)CC6)CC5)nc4c2F)N2C[C@H]4CC[C@H](N4)[C@H]2CCO3)c1C(F)(F)F` [Example 113, 3-((6aR,7S,10R)-1-fluoro-13-((1-((4-(trifluoromethyl)piperidin-1-yl)methyl)cyclopropyl)methoxy)-5,6,6a,7,8,9,10,11-octahydro-4-oxa-3,11a,12,14,15-pentaaza-7,10-methanocyclohepta [4,5]cycloocta [1,2,3-de]naphthalen-2-yl)-5-methyl-4-(trifluoromethyl) aniline], the IC50 was 0.3 to 3 nM in experiment [1] (setting [5]) and under 0.3 nM in experiment [2] (setting [6]).
As to `Cc1cc(N)cc(-c2nc3c4c(nc(OCC5(C(C)N(C)C)CC5)nc4c2F)N2C[C@H]4CC[C@H](N4)[C@H]2CCO3)c1C(F)(F)F` (stereo partly drawn) [Example 135, 3-((6aR,7S,10R)-13-((1-(1-(dimethylamino)ethyl)cyclopropyl)methoxy)-1-fluoro-5,6,6a,7,8,9,10,11-octahydro-4-oxa-3,11a,12,14,15-pentaaza-7,10-methanocyclohepta[4,5]cycloocta [1,2,3-de]naphthalen-2-yl)-5-methyl-4-(trifluoromethyl)aniline], the IC50 is 3 to 1000 nM in experiment [1] (setting [3]) and under 0.3 nM in experiment [2] (setting [4]).
In the case of `Cc1cc(N)cc(-c2nc3c4c(nc(OCC5(CN6[C@@H]7CC[C@H]6CC(F)(F)C7)CC5)nc4c2F)N2C[C@H]4CC[C@H](N4)[C@H]2CCO3)c1C(F)(F)F` [Example 175, 3-((6aR,7S,10R)-13-((1-(((1R,5S)-3,3-difluoro-8-azabicyclo[3.2.1]octan-8-yl)methyl)cyclopropyl)methoxy)-1-fluoro-5,6,6a,7,8,9,10,11-octahydro-4-oxa-3,11a,12,14,15-pentaaza-7,10-methanocyclohepta[4,5]cycloocta[1,2,3-de]naphthalen-2-yl)-5-methyl-4-(trifluoromethyl)aniline], the IC50 was 3 to 1000 nM in experiment [1] (setting [3]) and under 0.3 nM in experiment [2] (setting [4]).
Regarding `[2H]C([2H])([2H])N1CC[C@H](OC)[C@H]1[C@H](C)Oc1nc2c3c(nc(-c4cc(N)cc(Cl)c4C(F)(F)F)c(F)c3n1)OCC[C@@H]1[C@@H]3CC[C@H](CN21)N3` [Example 218, 3-chloro-5-((6aR,7S,10R)-1-fluoro-13-((S)-1-((2R,3S)-3-methoxy-1-(methyl-d3)pyrrolidin-2-yl)ethoxy)-5,6,6a,7,8,9,10,11-octahydro-4-oxa-3,11a,12,14,15-pentaaza-7,10-methanocyclohepta[4,5]cycloocta[1,2,3-de]naphthalen-2-yl)-4-(trifluoromethyl)aniline], the IC50 was 0.3 to 3 nM in experiment [1] (setting [3]) and under 0.3 nM in experiment [2] (setting [4]).
